In ChEMBL document CHEMBL1629456, “ApoA-I mimetic peptides promote pre-β HDL formation in vivo causing remodeling of HDL and triglyceride accumulation at higher dose” (Bioorg Med Chem, 2010):
*1 amine or outer side, *2 acyl side, *3 side chain or, on linkers, in order; H or OH if unused. Where a SMILES comes first, the peptide text is derived from it. [ ]: non-standard residue; d: D form. dNle(6-vinyl) = C=CCCCC[C@@H](N)C(=O)O; X1 = CCCCCCC[C@H](N[*:1])C(=O)[*:2]

The compounds below were run against Phospholipid-transporting ATPase ABCA1 (Mus musculus, UniProt P41233) (assay: Induction of ABCA1-mediated [3H]cholesterol efflux in mouse RAW 264.7 macrophages after 24 hrs).
Chain of Phospholipid-transporting ATPase ABCA1 (P41233 whole entry): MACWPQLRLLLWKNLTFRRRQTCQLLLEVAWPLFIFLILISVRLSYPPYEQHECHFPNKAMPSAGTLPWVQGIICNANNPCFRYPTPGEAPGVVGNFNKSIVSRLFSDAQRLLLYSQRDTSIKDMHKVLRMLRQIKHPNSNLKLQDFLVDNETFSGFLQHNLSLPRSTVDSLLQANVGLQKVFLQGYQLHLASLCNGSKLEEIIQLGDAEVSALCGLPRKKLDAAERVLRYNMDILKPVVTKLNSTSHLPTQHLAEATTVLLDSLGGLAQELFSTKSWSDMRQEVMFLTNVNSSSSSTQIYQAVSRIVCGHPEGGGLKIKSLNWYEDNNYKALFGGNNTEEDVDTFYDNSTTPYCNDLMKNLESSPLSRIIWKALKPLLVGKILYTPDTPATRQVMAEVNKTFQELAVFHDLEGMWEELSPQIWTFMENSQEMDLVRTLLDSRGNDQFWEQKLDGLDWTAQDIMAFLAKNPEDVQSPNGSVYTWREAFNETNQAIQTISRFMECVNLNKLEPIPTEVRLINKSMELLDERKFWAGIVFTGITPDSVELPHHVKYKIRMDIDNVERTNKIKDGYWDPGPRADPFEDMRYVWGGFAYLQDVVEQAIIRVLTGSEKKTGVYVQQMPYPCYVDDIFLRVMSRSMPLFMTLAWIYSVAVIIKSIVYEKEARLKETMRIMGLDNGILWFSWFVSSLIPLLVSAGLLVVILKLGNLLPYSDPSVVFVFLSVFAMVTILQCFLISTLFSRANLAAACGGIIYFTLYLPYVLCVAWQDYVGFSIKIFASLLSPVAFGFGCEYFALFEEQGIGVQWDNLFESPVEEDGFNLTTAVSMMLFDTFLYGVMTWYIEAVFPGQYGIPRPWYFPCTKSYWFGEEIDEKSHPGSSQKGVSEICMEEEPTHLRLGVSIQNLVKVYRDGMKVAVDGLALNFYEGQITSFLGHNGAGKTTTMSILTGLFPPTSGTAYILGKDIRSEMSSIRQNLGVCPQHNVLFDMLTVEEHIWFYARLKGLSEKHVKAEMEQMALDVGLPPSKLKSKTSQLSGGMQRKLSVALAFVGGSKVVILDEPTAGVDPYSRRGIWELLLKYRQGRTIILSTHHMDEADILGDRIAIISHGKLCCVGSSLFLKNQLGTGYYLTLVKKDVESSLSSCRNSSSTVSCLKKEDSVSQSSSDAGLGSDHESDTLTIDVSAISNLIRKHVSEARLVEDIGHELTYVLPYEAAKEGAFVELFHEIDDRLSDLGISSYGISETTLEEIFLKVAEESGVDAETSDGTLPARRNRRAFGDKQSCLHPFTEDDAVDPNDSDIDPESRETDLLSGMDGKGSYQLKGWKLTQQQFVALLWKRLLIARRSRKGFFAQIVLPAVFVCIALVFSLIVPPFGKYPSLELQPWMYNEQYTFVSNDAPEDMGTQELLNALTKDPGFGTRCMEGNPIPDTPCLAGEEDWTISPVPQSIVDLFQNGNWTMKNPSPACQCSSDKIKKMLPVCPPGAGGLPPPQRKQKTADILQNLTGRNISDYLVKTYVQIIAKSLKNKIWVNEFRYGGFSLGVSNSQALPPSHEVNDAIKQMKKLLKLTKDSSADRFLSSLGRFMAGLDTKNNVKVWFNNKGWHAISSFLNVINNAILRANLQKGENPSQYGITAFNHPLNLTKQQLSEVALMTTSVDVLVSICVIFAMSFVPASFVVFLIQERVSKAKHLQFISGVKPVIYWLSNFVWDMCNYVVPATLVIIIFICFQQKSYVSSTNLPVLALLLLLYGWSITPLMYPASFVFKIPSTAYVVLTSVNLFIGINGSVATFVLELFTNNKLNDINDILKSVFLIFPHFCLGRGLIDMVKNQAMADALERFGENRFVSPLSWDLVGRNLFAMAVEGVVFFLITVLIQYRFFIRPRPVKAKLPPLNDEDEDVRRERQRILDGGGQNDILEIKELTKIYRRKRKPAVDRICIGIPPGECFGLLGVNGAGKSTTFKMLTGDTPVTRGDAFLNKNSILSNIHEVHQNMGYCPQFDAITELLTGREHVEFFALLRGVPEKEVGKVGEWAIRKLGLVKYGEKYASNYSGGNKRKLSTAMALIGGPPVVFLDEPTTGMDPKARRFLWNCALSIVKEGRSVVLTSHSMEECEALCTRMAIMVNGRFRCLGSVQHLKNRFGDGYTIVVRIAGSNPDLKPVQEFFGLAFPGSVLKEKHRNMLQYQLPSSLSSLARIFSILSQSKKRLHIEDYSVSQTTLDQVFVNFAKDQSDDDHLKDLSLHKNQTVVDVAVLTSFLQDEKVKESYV
An EC50 greater than 100 µM was found for `C=CCCCCC[C@H](NC(=O)[C@H](CCC(=O)O)NC(=O)[C@H](CCC(=O)O)NC(=O)[C@H](CC(N)=O)NC(=O)[C@H](CC(C)C)NC(=O)[C@H](CCCCN)NC(=O)[C@H](CCC(=O)O)NC(=O)[C@H](CCCNC(=N)N)NC(=O)[C@H](Cc1ccccc1)NC(=O)[C@H](CCC(=O)O)NC(=O)[C@H](CC(=O)O)NC(=O)[C@H](CC(C)C)NC(=O)[C@@H](NC(=O)[C@@H]1CCCN1C(C)=O)C(C)C)C(=O)N[C@@H](CCC(=O)O)C(=O)N[C@@H](C)C(=O)N[C@@H](CC(C)C)C(=O)N[C@@H](CCCCN)C(=O)N[C@@H](CCC(N)=O)C(=O)N[C@@H](CCCCN)C(=O)N[C@@H](CC(C)C)C(=O)N[C@@H](CCCCN)C(N)=O` in this work. An EC50 greater than 100 µM was found for `C=CCCCC[C@H](NC(=O)[C@H](C)NC(=O)[C@H](CCC(=O)O)NC(=O)[C@H](CC(C)C)NC(=O)[C@H](CCC(=O)O)NC(=O)[C@H](CCC(=O)O)NC(=O)[C@H](CC(N)=O)NC(=O)[C@H](CC(C)C)NC(=O)[C@H](CCCCN)NC(=O)[C@H](CCC(=O)O)NC(=O)[C@H](CCCNC(=N)N)NC(=O)[C@H](Cc1ccccc1)NC(=O)[C@H](CCC(=O)O)NC(=O)[C@H](CC(=O)O)NC(=O)[C@H](CC(C)C)NC(=O)[C@@H](NC(=O)[C@@H]1CCCN1C(C)=O)C(C)C)C(=O)N[C@@H](CCCCN)C(=O)N[C@@H](CCC(N)=O)C(=O)N[C@@H](CCCCN)C(=O)N[C@@H](CC(C)C)C(=O)N[C@@H](CCCCN)C(N)=O` in this work. An EC50 greater than 100 µM was found for `C=CCCCCC[C@@H](NC(=O)[C@@H]1CCCN1C(C)=O)C(=O)N[C@@H](CC(C)C)C(=O)N[C@@H](CC(=O)O)C(=O)N[C@@H](CCC(=O)O)C(=O)N[C@@H](Cc1ccccc1)C(=O)N[C@@H](CCCNC(=N)N)C(=O)N[C@@H](CCC(=O)O)C(=O)N[C@@H](CCCCN)C(=O)N[C@@H](CC(C)C)C(=O)N[C@@H](CC(N)=O)C(=O)N[C@@H](CCC(=O)O)C(=O)N[C@@H](CCC(=O)O)C(=O)N[C@@H](CC(C)C)C(=O)N[C@@H](CCC(=O)O)C(=O)N[C@@H](C)C(=O)N[C@@H](CC(C)C)C(=O)N[C@@H](CCCCN)C(=O)N[C@@H](CCC(N)=O)C(=O)N[C@@H](CCCCN)C(=O)N[C@@H](CC(C)C)C(=O)N[C@@H](CCCCN)C(N)=O` in this work. An EC50 greater than 100 µM was found for `C=CCCCC[C@@H](NC(=O)[C@@H]1CCCN1C(C)=O)C(=O)N[C@@H](CC(C)C)C(=O)N[C@@H](CC(=O)O)C(=O)N[C@@H](CCC(=O)O)C(=O)N[C@@H](Cc1ccccc1)C(=O)N[C@@H](CCCN=C(N)N)C(=O)N[C@@H](CCC(=O)O)C(=O)N[C@@H](CCCCN)C(=O)N[C@@H](CC(C)C)C(=O)N[C@@H](CC(N)=O)C(=O)N[C@@H](CCC(=O)O)C(=O)N[C@@H](CCC(=O)O)C(=O)N[C@@H](CC(C)C)C(=O)N[C@@H](CCC(=O)O)C(=O)N[C@@H](C)C(=O)N[C@@H](CC(C)C)C(=O)N[C@@H](CCCCN)C(=O)N[C@@H](CCC(N)=O)C(=O)N[C@@H](CCCCN)C(=O)N[C@@H](CC(C)C)C(=O)N[C@@H](CCCCN)C(N)=O` in this work. An EC50 greater than 100 µM was found for `C=CCCCC[C@H](NC(=O)[C@H](CCCCN)NC(=O)[C@H](CCC(=O)O)NC(=O)[C@H](CCCN=C(N)N)NC(=O)[C@H](Cc1ccccc1)NC(=O)[C@H](CCC(=O)O)NC(=O)[C@H](CC(=O)O)NC(=O)[C@H](CC(C)C)NC(=O)[C@@H](NC(=O)[C@@H]1CCCN1C(C)=O)C(C)C)C(=O)N[C@@H](CC(N)=O)C(=O)N[C@@H](CCC(=O)O)C(=O)N[C@@H](CCC(=O)O)C(=O)N[C@@H](CC(C)C)C(=O)N[C@@H](CCC(=O)O)C(=O)N[C@@H](C)C(=O)N[C@@H](CC(C)C)C(=O)N[C@@H](CCCCN)C(=O)N[C@@H](CCC(N)=O)C(=O)N[C@@H](CCCCN)C(=O)N[C@@H](CC(C)C)C(=O)N[C@@H](CCCCN)C(N)=O` in this work. An EC50 greater than 100 µM was found for `C=CCCC[C@@H](NC(=O)[C@H](CCC(=O)O)NC(=O)[C@H](CC(N)=O)NC(=O)[C@H](CC(C)C)NC(=O)[C@H](CCCCN)NC(=O)[C@H](CCC(=O)O)NC(=O)[C@H](CCCNC(=N)N)NC(=O)[C@H](Cc1ccccc1)NC(=O)[C@H](CCC(=O)O)NC(=O)[C@H](CC(=O)O)NC(=O)[C@H](CC(C)C)NC(=O)[C@@H](NC(=O)[C@@H]1CCCN1C(C)=O)C(C)C)C(=O)N[C@@H](CC(C)C)C(=O)N[C@@H](CCC(=O)O)C(=O)N[C@@H](C)C(=O)N[C@@H](CC(C)C)C(=O)N[C@@H](CCCCN)C(=O)N[C@@H](CCC(N)=O)C(=O)N[C@@H](CCCCN)C(=O)N[C@@H](CC(C)C)C(=O)N[C@@H](CCCCN)C(N)=O` in this work. An EC50 greater than 100 µM was found for `C=CCCCC[C@@H](NC(=O)[C@H](CCCCN)NC(=O)[C@H](CCC(=O)O)NC(=O)[C@H](CCCNC(=N)N)NC(=O)[C@H](Cc1ccccc1)NC(=O)[C@H](CCC(=O)O)NC(=O)[C@H](CC(=O)O)NC(=O)[C@H](CC(C)C)NC(=O)[C@@H](NC(=O)[C@@H]1CCCN1C(C)=O)C(C)C)C(=O)N[C@@H](CC(N)=O)C(=O)N[C@@H](CCC(=O)O)C(=O)N[C@@H](CCC(=O)O)C(=O)N[C@@H](CC(C)C)C(=O)N[C@@H](CCC(=O)O)C(=O)N[C@@H](C)C(=O)N[C@@H](CC(C)C)C(=O)N[C@@H](CCCCN)C(=O)N[C@@H](CCC(N)=O)C(=O)N[C@@H](CCCCN)C(=O)N[C@@H](CC(C)C)C(=O)N[C@@H](CCCCN)C(N)=O` in this work. An EC50 of 31 µM was found for `C=CCCCC[C@@H](NC(=O)[C@H](CCC(=O)O)NC(=O)[C@H](CC(N)=O)NC(=O)[C@H](CC(C)C)NC(=O)[C@H](CCCCN)NC(=O)[C@H](CCC(=O)O)NC(=O)[C@H](CCCN=C(N)N)NC(=O)[C@H](Cc1ccccc1)NC(=O)[C@H](CCC(=O)O)NC(=O)[C@H](CC(=O)O)NC(=O)[C@H](CC(C)C)NC(=O)[C@@H](NC(=O)[C@@H]1CCCN1C(C)=O)C(C)C)C(=O)N[C@@H](CC(C)C)C(=O)N[C@@H](CCC(=O)O)C(=O)N[C@@H](C)C(=O)N[C@@H](CC(C)C)C(=O)N[C@@H](CCCCN)C(=O)N[C@@H](CCC(N)=O)C(=O)N[C@@H](CCCCN)C(=O)N[C@@H](CC(C)C)C(=O)N[C@@H](CCCCN)C(N)=O` (Ac-PVLDEFREKLNE[dNle(6-vinyl)]LEALKQKLK-NH2) in this work. An EC50 greater than 100 µM was found for `C=CCCCCC[C@@H](NC(=O)[C@H](CCC(=O)O)NC(=O)[C@H](CC(=O)O)NC(=O)[C@H](CC(C)C)NC(=O)[C@@H](NC(=O)[C@@H]1CCCN1C(C)=O)C(C)C)C(=O)N[C@@H](CCCNC(=N)N)C(=O)N[C@@H](CCC(=O)O)C(=O)N[C@@H](CCCCN)C(=O)N[C@@H](CC(C)C)C(=O)N[C@@H](CC(N)=O)C(=O)N[C@@H](CCC(=O)O)C(=O)N[C@@H](CCC(=O)O)C(=O)N[C@@H](CC(C)C)C(=O)N[C@@H](CCC(=O)O)C(=O)N[C@@H](C)C(=O)N[C@@H](CC(C)C)C(=O)N[C@@H](CCCCN)C(=O)N[C@@H](CCC(N)=O)C(=O)N[C@@H](CCCCN)C(=O)N[C@@H](CC(C)C)C(=O)N[C@@H](CCCCN)C(N)=O` in this work. An EC50 of 0.7 µM was found for `CCCCCCC[C@H](NC(=O)[C@H](CCC(=O)O)NC(=O)[C@H](CC(N)=O)NC(=O)[C@H](CC(C)C)NC(=O)[C@H](CCCCN)NC(=O)[C@H](CCC(=O)O)NC(=O)[C@H](CCCN=C(N)N)NC(=O)[C@H](Cc1ccccc1)NC(=O)[C@H](CCC(=O)O)NC(=O)[C@H](CC(=O)O)NC(=O)[C@H](CC(C)C)NC(=O)[C@@H](NC(=O)[C@@H]1CCCN1C(C)=O)C(C)C)C(=O)N[C@@H](CC(C)C)C(=O)N[C@@H](CCC(=O)O)C(=O)N[C@@H](C)C(=O)N[C@@H](CC(C)C)C(=O)N[C@@H](CCCCN)C(=O)N[C@@H](CCC(N)=O)C(=O)N[C@@H](CCCCN)C(=O)N[C@@H](CC(C)C)C(=O)N[C@@H](CCCCN)C(N)=O` (Ac-PVLDEFREKLNE[X1]LEALKQKLK-NH2) in this work. An EC50 greater than 100 µM was found for `C=CCCCCC[C@@H](NC(=O)[C@H](CCCCN)NC(=O)[C@H](CCC(N)=O)NC(=O)[C@H](CCCCN)NC(=O)[C@H](CC(C)C)NC(=O)[C@H](C)NC(=O)[C@H](CCC(=O)O)NC(=O)[C@H](CC(C)C)NC(=O)[C@H](CCC(=O)O)NC(=O)[C@H](CCC(=O)O)NC(=O)[C@H](CC(N)=O)NC(=O)[C@H](CC(C)C)NC(=O)[C@H](CCCCN)NC(=O)[C@H](CCC(=O)O)NC(=O)[C@H](CCCNC(=N)N)NC(=O)[C@H](Cc1ccccc1)NC(=O)[C@H](CCC(=O)O)NC(=O)[C@H](CC(=O)O)NC(=O)[C@H](CC(C)C)NC(=O)[C@@H](NC(=O)[C@@H]1CCCN1C(C)=O)C(C)C)C(=O)N[C@@H](CCCCN)C(N)=O` in this work. An EC50 of 213 µM was found for `C=CCCCC[C@H](NC(=O)[C@H](CCC(N)=O)NC(=O)[C@H](CCCCN)NC(=O)[C@H](CC(C)C)NC(=O)[C@H](C)NC(=O)[C@H](CCC(=O)O)NC(=O)[C@H](CC(C)C)NC(=O)[C@H](CCC(=O)O)NC(=O)[C@H](CCC(=O)O)NC(=O)[C@H](CC(N)=O)NC(=O)[C@H](CC(C)C)NC(=O)[C@H](CCCCN)NC(=O)[C@H](CCC(=O)O)NC(=O)[C@H](CCCNC(=N)N)NC(=O)[C@H](Cc1ccccc1)NC(=O)[C@H](CCC(=O)O)NC(=O)[C@H](CC(=O)O)NC(=O)[C@H](CC(C)C)NC(=O)[C@@H](NC(=O)[C@@H]1CCCN1C(C)=O)C(C)C)C(=O)N[C@@H](CC(C)C)C(=O)N[C@@H](CCCCN)C(N)=O` in this work. An EC50 greater than 100 µM was found for `C=CCCCC[C@@H](NC(=O)[C@H](CCC(=O)O)NC(=O)[C@H](CC(=O)O)NC(=O)[C@H](CC(C)C)NC(=O)[C@@H](NC(=O)[C@@H]1CCCN1C(C)=O)C(C)C)C(=O)N[C@@H](CCCN=C(N)N)C(=O)N[C@@H](CCC(=O)O)C(=O)N[C@@H](CCCCN)C(=O)N[C@@H](CC(C)C)C(=O)N[C@@H](CC(N)=O)C(=O)N[C@@H](CCC(=O)O)C(=O)N[C@@H](CCC(=O)O)C(=O)N[C@@H](CC(C)C)C(=O)N[C@@H](CCC(=O)O)C(=O)N[C@@H](C)C(=O)N[C@@H](CC(C)C)C(=O)N[C@@H](CCCCN)C(=O)N[C@@H](CCC(N)=O)C(=O)N[C@@H](CCCCN)C(=O)N[C@@H](CC(C)C)C(=O)N[C@@H](CCCCN)C(N)=O` in this work. An EC50 greater than 100 µM was found for `C=CCCCC[C@H](NC(=O)[C@H](CCC(=O)O)NC(=O)[C@H](CCCN=C(N)N)NC(=O)[C@H](Cc1ccccc1)NC(=O)[C@H](CCC(=O)O)NC(=O)[C@H](CC(=O)O)NC(=O)[C@H](CC(C)C)NC(=O)[C@@H](NC(=O)[C@@H]1CCCN1C(C)=O)C(C)C)C(=O)N[C@@H](CC(C)C)C(=O)N[C@@H](CC(N)=O)C(=O)N[C@@H](CCC(=O)O)C(=O)N[C@@H](CCC(=O)O)C(=O)N[C@@H](CC(C)C)C(=O)N[C@@H](CCC(=O)O)C(=O)N[C@@H](C)C(=O)N[C@@H](CC(C)C)C(=O)N[C@@H](CCCCN)C(=O)N[C@@H](CCC(N)=O)C(=O)N[C@@H](CCCCN)C(=O)N[C@@H](CC(C)C)C(=O)N[C@@H](CCCCN)C(N)=O` in this work.
